Reference: US9233978B2, “6-fused heteroaryldihydropyrimidines for the treatment and prophylaxis of hepatitis B virus infection” (Hoffmann-La Roche Inc., priority 2014, dated 2016)
Converted amounts (≈) assume the structure as drawn.

Tests used:
HBV = experiment: Anti-HBV activity in vitro, HepG2.2.15 cells, extracellular HBV DNA by qPCR; format: cell-based; details: Hepatitis B virus, HepG2.2.15, 120 h, HepG2.2.15 cells; HBV replication inhibited by 50%, extracellular HBV DNA by qPCR; five days after compound treatment; read-out: EC50
Source text: HepG2.2.15 and HepDE19 are stably-transfected cell lines containing the HBV genome. Both cell lines are derived from the hepatoblastoma cell line Hep G2 (American Type Culture Collection, ATCC® HB-8065™) by the published procedures described in references: MA Selles et al. Proc. Natl. Acad. Sci. USA 1987, 84, 1005-1009 and H Guo et al. Journal of Virology 2007, 81, 12472-12484, respectively. Both cell lines were maintained in Dulbecco's modified Eagle's medium (DMEM)-F12 medium supplemented with 10% fetal bovine serum, 100 U/mL penicillin, 100 μg/mL streptomycin, and 0.5 mg/mL of G418.
While HepG2.2.15 cells constitutively support HBV replication and production of virus particles, HepDE19 cells are inducible by tetracycline. Addition of 1 μg/mL tetracycline in culture medium suppresses HBV replication in HepDE19 cells, whereas switching to tetracycline-free medium resumes this process.
HepG2.2.15 cells were seeded into 96-well plates (3×10^4 cells in 100 μL media per well) and incubated overnight at 37° C. The test compounds were serially half-log diluted in DMSO, then diluted 100 times in culture media. 100 μL of diluted compounds were added into the plates to reach 0.5% final concentration of DMSO in every well. Five days after compound treatment, culture supernatant was collected for further analysis.
For quantitative PCR detection of extracellular HBV DNA, 100 μL of culture supernatant was collected and processed in MagNA Pure 96 Nucleic Acid Purification System (Roche Applied Science) for viral DNA extraction. The extracted samples were subjected to HBV DNA quantification by qPCR.

[1] = Human microsomal metabolic stability; format: in vitro ADME; details: human microsomes 0.5 mg/mL, 1 μM test compound, NADPH, 37° C., pH 7.4, 0-30 minutes
Experimental: Human Microsomes (BD Gentest) were preincubated with test compound for 10 minutes at 37° C. in 100 mM phosphate buffer, pH 7.4. The reactions were initiated by adding NADPH or NADPH regenerating system to give a final incubation volume of 400 μL. For NADPH system, the final incubations contained 1 μM test compound, 0.5 mg/mL liver microsomal protein, 1 mM NADPH in 100 mM phosphate buffer, pH 7.4. For the NADPH regenerating system, the final incubations contained 1 μM test compound, 0.5 mg/mL liver microsomal protein, 3 mM glucose 6-phosphate, 1 mM NADP, 3 mM MgCl2 and 0.05 mg/mL glucose 6-phosphate dehydrogenase in 100 mM phosphate buffer, pH 7.4. After incubation times of 0, 3, 6, 9, 15 and 30 minutes at 37° C., 1 sample was obtained from each time point and 50 μL of each sample was removed and transferred to 150 μL of methanol solution which was maintained at 4° C. and contained 2 μM tolbutamide as internal standard. Following precipitation and centrifugation, the amount of compound remaining in the samples were determined by LC-MS/MS. Controls of no NADPH or no NADPH regenerating system at zero and 30 minutes were also prepared and analyzed.

Lysa solubility = format: physicochemical; details: 0.05 M phosphate buffer (pH 6.5); for solubility thermodynamic: phosphate buffer, pH 6.5, aqueous buffer, thermodynamic from solid
Experimental: Samples were prepared in duplicate from 10 mM DMSO stock solutions. After evaporation of DMSO with a centrifugal vacuum evaporator, the residue was solved in 0.05 M phosphate buffer (pH 6.5), stirred for one hour and shook for two hours. After one night, the solution was filtered using a microtiter filter plate. Then the filtrate and its 1/10 dilution were analyzed by direct UV measurement or by HPLC-UV. […] The results were in μg/mL. In case the percentage of sample measured in solution after evaporation divided by the calculated maximum of sample amount was over 80%, the solubility was reported as higher than this value.

SMILES	EC50 (HBV) [nM]	Human Microsomal Clearance [1] [mL/min/kg]	solubility thermodynamic (Lysa solubility) [µg/mL]	Lysa (Lysa solubility) [µg/mL]
COC(=O)C1=C(CN2CCN3C(=O)N(C(C)(C)CC(=O)O)C[C@@H]3C2)NC(c2nccs2)=N[C@H]1c1ccc(F)c(F)c1C [Example 37, 3-[(8aS)-7-[[(4S)-4-(3,4-difluoro-2-methyl-phenyl)-5-methoxycarbonyl-2-thiazol-2-yl-1,4-dihydropyrimidin-6-yl]methyl]-3-oxo-5,6,8,8a-tetrahydro-1H-imidazo[1,5-a]pyrazin-2-yl]-3-methyl-butanoic acid]	17	2.5	422 (≈ 700 µM)	–
COC(=O)C1=C(CN2CCN3C(=O)N(C(C)C)C[C@H]3[C@@H]2C(=O)O)NC(c2nccs2)=N[C@H]1c1ccc(F)c(F)c1C (single isomer, unassigned) [Example 85A]	259	4.9	–	> 660
COC(=O)C1=C(CN2CCN3C(=O)N(CCCCC(=O)O)C[C@@H]3C2)NC(c2nccs2)=N[C@H]1c1ccc(F)cc1Cl [Example 80, 5-[(8aS)-7-[[(4R)-4-(2-chloro-4-fluoro-phenyl)-5-methoxycarbonyl-2-thiazol-2-yl-1,4-dihydropyrimidin-6-yl]methyl]-3-oxo-5,6,8,8a-tetrahydro-1H-imidazo[1,5-a]pyrazin-2-yl]pentanoic acid]	32	8.3	> 616	–
CCOC(=O)C1=C(CN2CCN3C(=O)N(c4ccccc4C(=O)O)C[C@@H]3C2)NC(c2nccs2)=N[C@H]1c1cccc(F)c1Cl [Example 28, (R)-6-[(S)-2-(2-Carboxy-phenyl)-3-oxo-hexahydro-imidazo[1,5-a]pyrazin-7-ylmethyl]-4-(2-chloro-3-fluoro-phenyl)-2-thiazol-2-yl-1,4-dihydro-pyrimidine-5-carboxylic acid ethyl ester]	30	4.4	337 (≈ 527 µM)	–
CCOC(=O)C1=C(CN2CCN3C(=O)N(C4(CC(=O)O)CC4)CC3C2)NC(c2nccs2)=N[C@H]1c1cccc(F)c1Cl (stereo in doubt) [Example 48, 2-[1-[(8aR)-7-[[(4R)-4-(2-chloro-3-fluoro-phenyl)-5-ethoxycarbonyl-2-thiazol-2-yl-1,4-dihydropyrimidin-6-yl]methyl]-3-oxo-5,6,8,8a-tetrahydro-1H-imidazo[1,5-a]pyrazin-2-yl]cyclopropyl]acetic acid]	22	3.8	> 807	–
CCOC(=O)C1=C(CN2CCN3C(=O)N(CCCC(=O)O)C[C@@H]3C2)NC(c2nccs2)=N[C@H]1c1cccc(F)c1Cl [Example 53, 4-[(8aS)-7-[[(4R)-4-(2-chloro-3-fluoro-phenyl)-5-ethoxycarbonyl-2-thiazol-2-yl-1,4-dihydropyrimidin-6-yl]methyl]-3-oxo-5,6,8,8a-tetrahydro-1H-imidazo[1,5-a]pyrazin-2-yl]butanoic acid]	19	5.1	> 723	–
CCOC(=O)C1=C(CN2CCN3C(=O)N([C@@H]4CCCC4C(=O)O)C[C@@H]3C2)NC(c2nccs2)=N[C@H]1c1cccc(F)c1Cl (stereo in doubt) [Example 50, (1R,2R)-2-[(8aS)-7-[[(4R)-4-(2-chloro-3-fluoro-phenyl)-5-ethoxycarbonyl-2-thiazol-2-yl-1,4-dihydropyrimidin-6-yl]methyl]-3-oxo-5,6,8,8a-tetrahydro-1H-imidazo[1,5-a]pyrazin-2-yl]cyclopentanecarboxylic acid]	15	3.6	339 (≈ 537 µM)	–
COC(=O)C1=C(CN2CCN3C(=O)N(C(C)(C)CC(=O)O)C[C@@H]3C2)NC(c2nccs2)=N[C@H]1c1ccc(F)cc1Cl [Example 33, 3-[(8aS)-7-[[(4R)-4-(2-chloro-4-fluoro-phenyl)-5-methoxycarbonyl-2-thiazol-2-yl-1,4-dihydropyrimidin-6-yl]methyl]-3-oxo-5,6,8,8a-tetrahydro-1H-imidazo[1,5-a]pyrazin-2-yl]-3-methyl-butanoic acid]	30	2.5	> 748	–
CCOC(=O)C1=C(CN2CCN3C(=O)N(CCCOCC(=O)O)CC3C2)NC(c2nccs2)=N[C@H]1c1cccc(F)c1Cl (stereo partly drawn) [Example 68, 2-[3-[7-[[(4R)-4-(2-chloro-3-fluoro-phenyl)-5-ethoxycarbonyl-2-thiazol-2-yl-1,4-dihydropyrimidin-6-yl]methyl]-3-oxo-5,6,8,8a-tetrahydro-1H-imidazo[1,5-a]pyrazin-2-yl]propoxy]acetic acid]	143	4.5	> 794	–
CCOC(=O)C1=C(CN2CCN3C(=O)N(C(C)(C)C(=O)O)C[C@@H]3C2)NC(c2nccs2)=N[C@H]1c1cccc(F)c1Cl [Example 32, (R)-6-[(S)-2-(1-Carboxy-1-methyl-ethyl)-3-oxo-hexahydro-imidazo[1,5-a]pyrazin-7-ylmethyl]-4-(2-chloro-3-fluoro-phenyl)-2-thiazol-2-yl-1,4-dihydro-pyrimidine-5-carboxylic acid ethyl ester]	199	1.6	> 701	–
CCOC(=O)C1=C(CN2CCN3C(=O)N(CC(OC)C(=O)O)C[C@@H]3C2)NC(c2nccs2)=N[C@H]1c1cccc(F)c1Cl (stereo partly drawn) [Example 78, 3-[(8aS)-7-[[(4R)-4-(2-chloro-3-fluoro-phenyl)-5-ethoxycarbonyl-2-thiazol-2-yl-1,4-dihydropyrimidin-6-yl]methyl]-3-oxo-5,6,8,8a-tetrahydro-1H-imidazo[1,5-a]pyrazin-2-yl]-2-methoxy-propanoic acid]	387	6.7	> 793	–
CCOC(=O)C1=C(CN2CCN3C(=O)N(CC(C)C(=O)O)C[C@@H]3C2)NC(c2nccs2)=N[C@H]1c1ccccc1Cl (stereo partly drawn) [Example 20, 3-[(8aS)-7-[[(4R)-4-(2-chlorophenyl)-5-ethoxycarbonyl-2-thiazol-2-yl-1,4-dihydropyrimidin-6-yl]methyl]-3-oxo-5,6,8,8a-tetrahydro-1H-imidazo[1,5-a]pyrazin-2-yl]-2-methyl-propanoic acid]	52	0.1	> 780	–
COC(=O)C1=C(CN2CCN3C(=O)N([C@H]4CCC[C@H]4C(=O)O)C[C@@H]3C2)NC(c2nccs2)=N[C@H]1c1ccc(F)cc1Cl [Example 51, (1R,2S)-2-[(8aS)-7-[[(4R)-4-(2-chloro-4-fluoro-phenyl)-5-methoxycarbonyl-2-thiazol-2-yl-1,4-dihydropyrimidin-6-yl]methyl]-3-oxo-5,6,8,8a-tetrahydro-1H-imidazo[1,5-a]pyrazin-2-yl]cyclopentanecarboxylic acid]	31	2.0	589 (≈ 954 µM)	–
CCOC(=O)C1=C(CN2CCN3C(=O)N(C4CC4)C[C@H]3[C@@H]2C(=O)O)NC(c2nccs2)=N[C@H]1c1cccc(F)c1Cl (single isomer, unassigned) [Example 82A]	145	1.7	–	–
COC(=O)C1=C(CN2CCN3C(=O)OC(C)(C)[C@]3(CC(=O)O)C2)NC(c2nccs2)=N[C@H]1c1ccc(F)cc1Cl (single isomer, unassigned) [Example 90A]	96	0.3	–	–
